Key:
[1] = tested on: aldose reductase; settings: reported in the literature; cited from earlier work
[2] = molecular target: T1, aldose reductase (Bos taurus, UniProt P16116); test: in vitro aldose reductase inhibition (enzyme from bovine lens, modified Hayman and Kinoshita procedure); type: biochemical; settings: for inhibition at 10 µM: 10^-5 molar, read-out: % Inhibition at Different Molar Concentrations (in vitro), 10^-5; for inhibition at 1 µM: 10^-6 molar, read-out: % Inhibition at Different Molar Concentrations (in vitro), 10^-6; for inhibition at 0.1 µM: 10^-7 molar, read-out: % Inhibition at Different Molar Concentrations (in vitro), 10^-7
T1 construct: preparation of the enzyme from bovine lens; from tissue; host or cells: bovine lens
Description: In the present case the procedure of Hayman and Kinoshita is modified in that the final chromatography step is omitted in the preparation of the enzyme from bovine lens.
The following results were obtained when the compounds of this invention were evaluated in the above in vitro test.

Row | SMILES | inhibition of aldose reductase (in words) [1] | inhibition at 10 µM [2] [%] | inhibition at 1 µM [2] [%] | inhibition at 0.1 µM [2] [%]
1 | O=C(O)CN1C(=O)c2cccc3cccc(c23)C1=O [1,3-Dioxo-1H-benz[de]isoquinoline-2(3H)-acetic acid] | effective inhibitor of aldose reductase | – | – | –
2 | COc1c(Cl)cc(C(=S)N(C)CC(=O)O)c2cccc(S(=O)(=O)N(C)C)c12 [N-[[3-chloro-4-methoxy-5-(dimethylaminosulfonyl)-1-naphthalenyl]thioxomethyl]-N-methylglycine] | – | 91 | 67 | 19
3 | COc1ccc(C(=S)N(C)CC(=O)O)c2cccc(S(=O)(=O)N(C)C)c12 [N-[[4-methoxy-5-(dimethylaminosulfonyl)-1-naphthalenyl]thioxomethyl]-N-methylglycine] | – | 80 | 35 | 6
4 | O=C(O)[C@@H]1CCCN1C(=S)c1cccc2c(Br)cccc12 [R^1 R^2=CH2 CH2 CH2, R^3=5-Br, n=O, N-[(5-bromo-1-naphthalenyl)thioxomethyl]-L-proline] | – | 56 | 26 | –
5 | O=C(O)CN(C(=S)c1cccc2c(Br)cccc12)c1ccc(Cl)cc1 [R^1=4-Cl--C6 H4, R^2=H, R^3=5-Br, n=O, N-[(5-bromo-1-naphthalenyl)thioxomethyl]-N-(4-chlorophenyl)glycine] | – | 86 | 80 | 39
6 | O=C(O)CN(CC(=O)O)C(=S)c1cccc2c(Br)cccc12 [R^1=CH2 COOH, R^2=H, R^3=5-Br, n=O, N-[(5-bromo-1-naphthalenyl)thioxomethyl]-N-(carboxymethyl)glycine] | – | 46 | 7 | –
7 | CC(C(=O)O)N(C)C(=S)c1cccc2c(Br)cccc12 (centres unmarked) [R^1=CH3, R^2=CH3, R^3=5-Br, n=O *] | – | 18 | – | –
8 | CN(CC(=O)O)C(=S)c1cc(Br)cc2ccccc12 [R^1=CH3, R^2=H, R^3=3-Br, n=O, N-[(3-Bromo-1-naphthalenyl)thioxomethyl]-N-methylglycine] | – | 90 | 74 | 28
9 | CN(CCCC(=O)O)C(=S)c1cccc2c(Br)cccc12 [R^1=CH3, R^2=H, R^3=5-Br, n=2, N-[(5-bromo-1-naphthalenyl)thioxomethyl]-N-methyl-4-aminobutanoic acid] | – | 37 | – | –
10 | CN(CC(=O)O)C(=S)c1cccc2cc(Br)ccc12 [R^1=CH3, R^2=H, R^3=6-Br, n=O, N-[(6-bromo-1-naphthalenyl)thioxomethyl)-N-methylglycine] | – | 91 | 75 | 18
11 | CN(CC(=O)O)C(=S)c1cccc2ccc(Br)cc12 [R^1=CH3, R^2=H, R^3=7-Br, n=O, N-[(7-bromo-1-naphthalenyl)thioxomethyl]-N-methylglycine] | – | 86 | 58 | 15
12 | O=C1NC(=O)[C@@]2(CCOc3ccc(F)cc32)N1 [sorbinil, (S)-6-Fluoro-2,3-dihydrospiro(4H-1-benzopyran-4,4'-imidazolidine)-2',5'-dione] | aldose reductase inhibiting properties | – | – | –

Source: patent publication US4391816A, “N-(Naphthalenylthioxomethyl)aminoacid derivatives” (Ayerst, McKenna & Harrison Inc., priority 1981, dated 1983)
